Measured values as given in US11358965B2, “EGFR dimer disruptors and use of the same” (THE REGENTS OF THE UNIVERSITY OF MICHIGAN, priority 2018, dated 2022).

Tests used:
[1] = tested on: K-562; assay: NCI 60 cell line screen, K-562; type: cell-based, human; settings: Leukemia
Procedure: (§1) The activity of Compound 8C was tested against 60 different human tumor cell lines at the National Cancer Institute, using the standard NCI 60 screening protocol.

[2] = target: T1, purified EGFR (Homo sapiens, UniProt P00533); assay: Competition with Biotin-Disruptin for purified EGFR; type: binding; settings: 15 minutes at 37° C.
T1 construct: WT-EGFR kinase domain (aa696-1022, active kinase); made in house; host or cells: SF9 insect cells
Procedure: To determine if Compound 8C competes for the same binding site on EGFR, Biotin-Disruptin-Avidin coupled beads were incubated with purified EGFR in the presence or absence of Compound 8C for 15 minutes at 37° C. The agarose beads were spun down, and the non-specific protein removed by washing in citrate buffer. The bound protein was released in Laemmli buffer and resolved by SDS page.

[3] = tested on: MDA-MB-468; assay: NCI 60 cell line screen, MDA-MB-468; type: cell-based, human; settings: Breast Cancer
Procedure: as §1

[4] = Microsomal half-life; type: in vitro ADME; settings: microsomes
[5] = tested on: UMSCC74B; assay: UMSCC74B head and neck tumor model, daily for one week; type: in vivo
Procedure: Efficacy testing of Compound 8C in UMSCC74B, an EGFR driven, aggressive tumor model of the head and neck. Tumor bearing mice were treated with 30 mg/kg dose daily (Monday-Friday) for one week. This dose was selected based on single dose PK profile (see FIG. 8A). This treatment was safe and produced significant tumor growth delay (see FIG. 10).
Nude mice bearing either UMSCC74B ([…]) were treated with (30 mg/kg, daily for one week) or with vehicle (5% DMSO in PBS). Each group had at least 5 mice. Tumor volume and body weight was recorded 3-4 times a week, and change in the average tumor volume with time is plotted. The average loss in body weight during treatment was less than 10%. Error bar represents standard error of the mean.
For the Compound 8C treatment group, day 0 is defined as the first day of treatment. In vehicle control mice, day 0 was defined as the day when the tumor volume was closest to the mean tumor volume in Compound 8C treatment groups on the day of treatment initiation. To assess whether tumor volume growth rates differed by treatment, mixed effect models were fit with random intercept terms at the mouse levels to account for correlated outcomes over time within a tumor and between 2 tumors within a mouse. Monotherapy elicited a significant reduction in tumor growth rate after one week of dosing (see FIG. 10).

[6] = tested on: cells; assay: Cell Titer Blue % cell viable (24 hrs); type: cell-based; settings: 24 h, Conc 3.75 μM
Procedure: The viability of cells upon treatment was assessed by CellTiter-Blue® reagent following the manufacturer's protocol in RKO, UM10B, UM1, MCR5, and UMCC92 cells. Briefly, 10,000 cells were plated in 96-well plate in quadruplets. One day after seeding, cells were treated with a range of concentrations (0.1 to 30 micromolar). […] Only the viable cells convert the redox dye (reszurin) into a fluorescent product (resofurin). The emission of fluorescence (excitation 560 nm) was measured at […]. The IC50 value was calculated as the mean concentration of compounds required to inhibit cell proliferation as measured by the fluorescence at […] by 50 percent compared to the vehicle-treated controls.

[7] = tested on: UMCC92 cells; assay: Clonogenic IC50, UMCC92; type: cell-based
[8] = tested on: UM1 cells; assay: Clonogenic IC50, UM1; type: cell-based
[9] = tested on: MDA-MB-231/ATCC; assay: NCI 60 cell line screen, MDA-MB-231/ATCC; type: cell-based, human; settings: Breast Cancer
Procedure: as §1

[10] = target: T2, purified wild-type EGFR kinase domain (Homo sapiens, UniProt P00533); assay: Thermal stability assay of purified EGFR; type: binding; settings: 10 μM
T2 construct: WT-EGFR kinase domain (aa696-1022, active kinase); made in house; host or cells: SF9 insect cells
Procedure: The samples were subjected to heat inactivation (20 to 44° C.) for 3 minutes. The soluble fraction was separated from aggregate by centrifugation at 13,000 RPM at 4° C. for 10 minutes. […] The EGFR band intensity as quantified by ImageJ software and plotted (see FIG. 5B). […] The soluble fraction of EGFR was quantified and plotted as described above (see FIG. 5C).
After cooling, the samples were centrifuged, and the soluble protein fraction was collected and resolved using immunoblotting with anti-EGFR antibodies (see FIG. 6A).

[11] = tested on: HCC827-AZR; assay: Clonogenic survival assay, HCC827-AZR; type: cell-based; settings: read-out: IC50 and IC90
[12] = tested on: PC9-AZR; assay: Clonogenic survival assay, PC9-AZR; type: cell-based; settings: read-out: IC50 and IC90
[13] = tested on: SK-MEL-28; assay: NCI 60 cell line screen, SK-MEL-28; type: cell-based, human; settings: Melanoma
Procedure: as §1

[14] = tested on: MALME-3M; assay: NCI 60 cell line screen, MALME-3M; type: cell-based, human; settings: Melanoma
Procedure: as §1

[15] = Stability in mouse liver microsomes; type: in vitro ADME
[16] = tested on: Ba/F3-AZR cells (L858R+T790M+C797S-EGFR); assay: Osimertinib resistant Ba/F3-AZR ascites tumor model; type: in vivo, nude mice; settings: single 30 mg/kg dose (Compound 8C i.p., osimertinib oral), 18 days after tumor cells
[17] = tested on: HL-60(TB); assay: NCI 60 cell line screen, HL-60(TB); type: cell-based, human; settings: Leukemia
Procedure: as §1

[18] = tested on: UACC-62; assay: NCI 60 cell line screen, UACC-62; type: cell-based, human; settings: Melanoma
Procedure: as §1

T2 sequence (P00533 696-1022): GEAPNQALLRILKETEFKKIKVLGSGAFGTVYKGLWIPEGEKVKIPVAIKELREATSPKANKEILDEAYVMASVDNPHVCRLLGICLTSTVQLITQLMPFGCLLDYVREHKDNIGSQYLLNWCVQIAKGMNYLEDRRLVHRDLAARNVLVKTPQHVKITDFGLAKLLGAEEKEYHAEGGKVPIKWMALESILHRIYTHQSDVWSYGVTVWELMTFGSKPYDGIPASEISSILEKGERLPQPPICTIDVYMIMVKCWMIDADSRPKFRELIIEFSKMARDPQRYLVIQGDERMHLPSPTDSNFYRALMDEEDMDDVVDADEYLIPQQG
T1 sequence (P00533 696-1022): as above

Structure (SMILES): CN1CCC2(CC1)N=C(SCC(=O)Nc1cnc3ccccc3c1)C(c1ccc(Br)cc1)=N2 [Compound 8C, 2-((3-(4-bromophenyl)-8-methyl-1,4,8-triazaspiro[4.5]deca-1,3-dien-2-yl)thio)-N-(quinolin-3-yl)acetamide]
- Percent Growth [1]: −61.5%
- inhibition of Disruptin-EGFR binding [2]: Competitive inhibition
- Percent Growth [3]: −43.8%
- half-life [4]: > 46 min
- safety of treatment ([5]; 30 mg/kg dose daily (Monday-Friday) for one week): safe
- average loss in body weight during treatment ([5]; 30 mg/kg, daily for one week): less than 10%
- tumor growth rates ([5]; 30 mg/kg, daily for one week, vs time-matched control (p=0.013) and overall control (p<0.001)): significantly lower
- viability at 3.75 µM [6]: 68%
- IC50 [7]: 0.2 µM
- IC50 [8]: 0.5 µM
- Percent Growth [9]: −40.5%
- effect on melting curve / melting temperature of purified WT-EGFR [10]: shifts the melting curve
- IC50 [11]: 1.5 to 4 µM
- IC50 [12]: 1.5 to 4 µM
- Percent Growth [13]: −70.1%
- Percent Growth [14]: −75.5%
- stability compared to pre lead (C95) [15]: approximately 20 times
- survival [16]: prolonged life
- Percent Growth [17]: −40.7%
- Percent Growth [18]: −78.9%
